The text below walks through data of publication PMC12498288 (Frontiers in Immunology, 2025).

SMILES strings stand for the structures.

In one data set the test system is human PBMCs. The data set can be described thus: Cytokine and chemokine levels in LPS-stimulated human PBMCs (ELISA). To be noted: 1 µg/mL LPS, 10 µg/mL zapnometinib, 6 h, vs untreated control. In kind it is cell-based. On the procedure:
Human peripheral blood mononuclear cells (PBMCs) were isolated from healthy volunteers registered with the Biobank of the Department of Immunology at the University of Tuebingen, after informed consent documented in writing. Ethical approval was obtained upon review by the Ethics Board of the Medical Faculty of the Eberhard Karls University Tuebingen and the University Hospital Tuebingen (887/2020BO2). Briefly, 50 ml whole blood (roughly 5x10^7 PBMCs) of two donors were taken in 50 ml syringes (BD Biosciences, Franklin Lakes, New Jersey, USA) supplied with heparin-natrium (100.000 I.E./ml; Braun, Melsungen, Germany). The whole blood was mixed with PBS (Gibco, Carlsbad, California, USA) in a 1:1 ratio in 50 ml tubes (Greiner Bio-One, Frickenhausen, Germany), and PBMCs were subsequently isolated from the whole blood by density gradient centrifugation using Histopaque®-1077 (Sigma-Aldrich, St. Louis, Missouri, USA) as density gradient medium. Five millilitres of plasma per donor were preserved for cell culture medium preparation. The PBMCs were then purified by washing them twice with PBS.
2x10^6 human PBMCs from two donors each were suspended in 1 mL RPMI 1640 medium (Gibco) containing 5% autologous plasma, 1% penicillin/streptomycin (Sigma-Aldrich), and 1% L-glutamine (Sigma-Aldrich) and were treated with 1 μg/mL LPS from E. coli O55:B5 (prepared in PBS) and 10 μg/mL zapnometinib (prepared in DMSO and diluted in cell culture medium to a final concentration of 0.1% DMSO) for 6 h at 37°C and 5% CO2. The supernatants (cell culture medium) were collected and stored at -20°C until analysis by ELISA. Ready-to-use ELISA kits (Invitrogen, Waltham, Massachusetts, USA) were used according to the manufacturer’s instructions to determine the levels of the following cytokines: IL-1β, IL-6, IL-8, IP-10, MCP-1, MIP-1α, and TNF-α. Briefly, the samples and standards were applied to ELISA plates pre-coated with specific antibodies targeting the cytokines of interest. Biotinylated detection antibodies binding to the cytokines of interest were added to the wells followed by a horseradish peroxidase (HRP)-streptavidin conjugate, which binds to the biotinylated detection antibodies. Unbound cytokines, detection antibodies, and HRP-streptavidin conjugate were removed by washing. Tetramethylbenzidine (TMB) substrate was added, and the color change in the wells served as the readout for the ELISA. Optical density (OD) at 450 nm was measured using a SpectraMAX Plus 384 microplate reader. For IL-1β, IL-8, MCP-1, and TNF-α the OD was also read at a reference wavelength of 620 nm, and for IL-6 at a reference wavelength of 550 nm. For IP-10 and MIP-1α no reference wavelength was used. Cytokine and chemokine concentrations were calculated following the manufacturer’s instructions for interpolating unknown concentrations from a standard curve.

The test system of data set [1] is cytokine and chemokine levels. Put plainly: Cytokine and chemokine levels in SARS-CoV-2-infected Syrian hamsters (serum ELISA, lung RT-qPCR). In kind it is in vivo. To be noted: 4 dpi, between groups after infection and treatment. Here is the method: Eleven- to thirteen-week-old male Syrian hamsters (Janvier, France) with a body weight of 113-148 g were infected on day 0 intranasally with SARS-CoV-2 (1x10^3 median tissue culture infectious dose (TCID50) BetaCoV/Munich/BavPat1/2020) in a total volume of 0.1 mL PBS divided between the nostrils. Zapnometinib (100 mg/kg) was administered p.o. at 4 or 24 h p.i. and the animals in both groups were treated thereafter with 75 mg/kg zapnometinib once daily. The animals in the control group received vehicle (5% DMSO, 15% Kolliphor, 80% PBS) 4 h p.i. and thereafter once daily. Serum samples were collected from hamsters before infection (0 dpi) and at 4 dpi, and the levels of different cytokines and chemokines (IL1-β, TNF-α, IL-6, and IP-10) were analyzed by ELISA (Assay Genie, Ireland). […] Tetramethylbenzidine (TMB) substrate was added and the color change in the wells was used as readout for the ELISA. The optical density (OD) at 450 nm was read. Cytokine and chemokine concentrations were calculated following the manufacturer’s instructions for interpolating unknown concentrations from a standard curve.
Supplementary Figure 3. […] A. Cytokine levels in serum samples collected at 0 dpi (before infection and treatment, bottom row) and 4 dpi (top row) from vehicle-treated and zapnometinib-treated Syrian hamsters from the efficacy study analyzed by ELISA are shown. […]
Background: An ELISA detects its analyte on a solid surface through an enzyme-linked reagent.

Details of data set [2]: method as in NCT04385420; EudraCT 2021-005225-25. As to conditions: two phase 1 studies in healthy volunteers, ref NCT04385420; EudraCT 2021-005225-25; cited from earlier work.

Turning to `O=C(O)c1ccc(F)c(F)c1Nc1ccc(I)cc1Cl` [zapnometinib], in the data set on human PBMCs, the IL-1β expression level result was “significantly reduced”, the IL-6 expression level result is given as “significantly reduced”, the IL-8 expression level result is reported as “significantly reduced” and the IP-10 expression level result is “significantly reduced”. In addition, in the data set with human PBMCs, the MCP-1 expression level entry is “significantly reduced”, the MIP-1α expression level result was “significantly reduced” and the TNF-α expression level result is recorded as “significantly reduced”. Besides, in data set [1], the “cytokine and chemokine levels in serum (ELISA) and lung tissue (RT-qPCR)” value is “no major differences”. Besides, in data set [2], the “toxicity and tolerability in humans” value is “showed no toxicity and was well tolerated”.
